Assay results taken from ChEMBL document CHEMBL1201862, “PubChem BioAssay data set” (2004).
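Values below derive from 48-hour exposures of cells grown in 96-well plates, with endpoints linearly interpolated between the two concentrations bracketing the appropriate inhibition level. At the GI50, growth is halved.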 Active and inactive are the calls of the source. Cut-off read from the data, not from the text of the source: active = GI50 up to about 1.1 µM and inactive = higher.

Legend:
Test in all cases: DTP human tumour cell line panel, 48 h
SK-MEL-28 = test system: SK-MEL-28
CAKI-1 = test system: CAKI-1
COLO 205 = test system: COLO 205
DMS-273 = test system: DMS-273
U-251 = test system: U-251
UACC-257 = test system: UACC-257
Malme-3M = test system: Malme-3M
SW-620 = test system: SW-620
SNB-75 = test system: SNB-75
OVCAR-4 = test system: OVCAR-4
CCRF-CEM = test system: CCRF-CEM
NCI-H23 = test system: NCI-H23
SK-OV-3 = test system: SK-OV-3
RPMI-8226 = test system: RPMI-8226
SF-268 = test system: SF-268
SF-539 = test system: SF-539
KM-20L2 = test system: KM-20L2
NCI-H522 = test system: NCI-H522
MOLT-4 = test system: MOLT-4
SNB-78 = test system: SNB-78
A549 = test system: A549
SK-MEL-5 = test system: SK-MEL-5
TK-10 = test system: TK-10
M19-MEL = test system: M19-MEL
HOP-62 = test system: HOP-62
M14 = test system: M14
HL-60 = test system: HL-60
SN12C = test system: SN12C
IGROV-1 = test system: IGROV-1
SF-295 = test system: SF-295
HCC 2998 = test system: HCC 2998
SR = test system: SR
UO-31 = test system: UO-31
OVCAR-5 = test system: OVCAR-5
SNB-19 = test system: SNB-19
K562 = test system: K562
HT-29 = test system: HT-29
LXFL 529 = test system: LXFL 529
ACHN = test system: ACHN
HCT-15 = test system: HCT-15
KM12 = test system: KM12
OVCAR-3 = test system: OVCAR-3
XF498 = test system: XF498
EKVX = test system: EKVX
OVCAR-8 = test system: OVCAR-8
SK-MEL-2 = test system: SK-MEL-2
RXF 393 = test system: RXF 393
HOP-92 = test system: HOP-92
DMS-114 = test system: DMS-114
HCT-116 = test system: HCT-116
DLD-1 = test system: DLD-1
NCI-H460 = test system: NCI-H460
UACC-62 = test system: UACC-62
A498 = test system: A498

## Cc1nc2c(c(=O)[nH]1)S/C(=C(/C#N)c1nc3ccccc3[nH]1)N2c1ccccc1
SK-MEL-28
  GI50: > 100 µM (inactive)
CAKI-1
  GI50: > 100 µM (inactive)
COLO 205
  GI50: > 100 µM (inactive)
DMS-273
  GI50: > 100 µM (inactive)
U-251
  GI50: > 100 µM (inactive)
UACC-257
  GI50: > 100 µM (inactive)
Malme-3M
  GI50: > 100 µM (inactive)
SW-620
  GI50: > 100 µM (inactive)
SNB-75
  GI50: > 100 µM (inactive)
OVCAR-4
  GI50: > 100 µM (inactive)
CCRF-CEM
  GI50: > 100 µM (inactive)
NCI-H23
  GI50: > 100 µM (inactive)
SK-OV-3
  GI50: > 100 µM (inactive)
RPMI-8226
  GI50: > 100 µM (inactive)
SF-268
  GI50: > 100 µM (inactive)
SF-539
  GI50: > 100 µM (inactive)
KM-20L2
  GI50: > 100 µM (inactive)
NCI-H522
  GI50: > 100 µM (inactive)
MOLT-4
  GI50: > 100 µM (inactive)
SNB-78
  GI50: 0.607 µM (active)
A549
  GI50: > 100 µM (inactive)
SK-MEL-5
  GI50: > 100 µM (inactive)
TK-10
  GI50: > 100 µM (inactive)
M19-MEL
  GI50: > 100 µM (inactive)
HOP-62
  GI50: > 100 µM (inactive)
M14
  GI50: > 100 µM (inactive)
HL-60
  GI50: > 100 µM (inactive)
SN12C
  GI50: > 100 µM (inactive)
IGROV-1
  GI50: > 100 µM (inactive)
SF-295
  GI50: > 100 µM (inactive)
HCC 2998
  GI50: > 100 µM (inactive)
SR
  GI50: > 100 µM (inactive)
UO-31
  GI50: > 100 µM (inactive)
OVCAR-5
  GI50: > 100 µM (inactive)
SNB-19
  GI50: > 100 µM (inactive)
K562
  GI50: > 100 µM (inactive)
HT-29
  GI50: > 100 µM (inactive)
LXFL 529
  GI50: > 100 µM (inactive)
ACHN
  GI50: > 100 µM (inactive)
HCT-15
  GI50: > 100 µM
KM12
  GI50: > 100 µM (inactive)
OVCAR-3
  GI50: > 100 µM (inactive)
XF498
  GI50: > 100 µM (inactive)
EKVX
  GI50: > 100 µM (inactive)
OVCAR-8
  GI50: > 100 µM (inactive)
SK-MEL-2
  GI50: > 100 µM (inactive)
RXF 393
  GI50: > 100 µM (inactive)
HOP-92
  GI50: > 100 µM (inactive)
DMS-114
  GI50: > 100 µM (inactive)
HCT-116
  GI50: > 100 µM (inactive)
DLD-1
  GI50: > 100 µM (inactive)
NCI-H460
  GI50: > 100 µM (inactive)
UACC-62
  GI50: > 100 µM (inactive)
A498
  GI50: > 100 µM (inactive)
